Here are results for two compounds from ChEMBL document CHEMBL1141729, “Two new cytotoxic compounds from Tapirira guianensis” (J Nat Prod, 1998).

Usually IC50 stands for the point on the concentration scale where inhibition reaches its midpoint.

Format in all cases: functional, cell-based
The subject of one experiment is Lu1. The experiment in a line: Cytotoxicity against human Lu1 cells.
The nature of experiment [1]: Cytotoxicity against vinblastine-resistant human KBV1 cells. Conditions: KB-V1.
A short description of experiment [2]: Cytotoxicity against vinblastine-resistant human KBV1 cells in presence of vinblastine. To be noted: KB-V1.
For a further experiment, the system named is LNCaP. The experiment in a line: Cytotoxicity against human LNCAP cells.
The nature of experiment [3]: Cytotoxicity against human BC1 cells.
Another experiment has as its system Col2. Briefly: Cytotoxicity against human Col2 cells.
The test system of a further experiment is KB. The experiment in a line: Cytotoxicity against human KB cells.

In brackets after ≈: the same amount, converted by molar mass.

`CCCCCC/C=C\CCCCCCCCCc1cc(O)ccc1O`: the concentration for half-maximal inhibition (IC50) with Lu1 was 0.3 µg/mL (≈ 0.866 µM); in experiment [1], 0.6 µg/mL (≈ 1.73 µM); in experiment [2] it was 0.5 µg/mL; in the experiment on LNCaP it was 0.2 µg/mL (≈ 0.577 µM); in experiment [3] it was 1.3 µg/mL (≈ 3.75 µM); in the experiment with Col2, 0.8 µg/mL (≈ 2.31 µM). This compound also registered an IC50 with KB of 0.5 µg/mL (≈ 1.44 µM).

As for `CCCCCC/C=C\CCCCCCCCC[C@]1(O)C=CC(=O)[C@@H](O)C1`, the half-maximal inhibitory concentration (IC50) in the experiment on Lu1 worked out at 4.4 µg/mL (≈ 12.1 µM); in experiment [1], 4.2 µg/mL (≈ 11.5 µM); in experiment [2], 4.1 µg/mL; in the experiment on LNCaP it was 0.3 µg/mL (≈ 0.823 µM); in experiment [3], 4.3 µg/mL (≈ 11.8 µM); in the experiment on Col2, 1.8 µg/mL (≈ 4.94 µM). In the experiment with KB, this compound showed an IC50 of 1.5 µg/mL (≈ 4.11 µM).
